Experimental findings from US20220267728A1, “ALLOGENIC CAR-T CELL THERAPY” (TX MEDIC AB, priority 2019, published 2022) are described below.

In experiment [1] the test system is whole blood. The experiment is described as follows: Human whole blood loop assay: ACT kaolin time and prothrombin/INR time (i-STAT cartridges). Particulars: for Activated clotting time (ACT) / Prothrombin time (PT) / international normalized ration (INR): dextran sulfate 0.2 mg/ml, no CAR-T cells. The procedure:
The objective of this Example was to investigate dextran sulfate in a human whole blood loop assay in combination with CAR-T cells. Cellular activation and viability and blood status was assessed after incubation in the human whole loop system with dextran sulfate with and without CAR-T cells.
(§1) Blood from healthy donors was taken in an open system and immediately mixed with test compounds (CD19-CAR T cells and dextran sulfate (Tikomed AB, Sweden, WO 2016/076780, referred to as IBsolvMIR in the figures). Autologous setting included CAR-T cells generated from the same donor that donated whole blood. In allogeneic setting, blood and CAR-T cells were not matched (from different donors). All materials in direct contact with whole blood were surface heparinized in accordance with the manufacturers protocol (Corline, Sweden). Whole blood (2 ml) was added to PVC-tubing, which, with a surface heparinized metal connector, formed a loop. The dextran sulfate (0.2 g/L) and CAR-T cells (0.5-5×10^6 cells) were added according to Table 1, and the loops were set to rotate on a wheel at 37° C. Blood aliquots were sampled, andeEthylenediaminetetraacetic acid (EDTA) was added to a final concentration of 10 mM to stop reactions at a given time-point. The automated hematology analyzer XP-300 or XN-350 (Sysmex) was used to assess blood cell count at different time points, while i-STAT cartridges (Abbott) were used to measure ACT kaolin time and prothrombin/INR time measurements.

Experiment [2] deals with C3a. As to the kind of experiment: Complement analysis (C3a) ELISA on plasma from whole blood loops. Further details: species or system human. Particulars: data not shown. On the procedure: The plasma samples were kept on ice, and plasma was collected by centrifugation at 2000×g at 4° C. for 20 minutes. The plasma was stored at −70° C. until the time of analysis. Complement analysis (C3a) was performed on plasma collected at various time points after assay start with ELISA kits from RayBiotech according to the manufacturers instructions. For experiments involving flow cytometry, blood samples were mixed with EDTA (final concentration of 10 mM), followed by the Fc block (BD Biosciences) and antibody master mix containing anti-human fluorochrome-labeled antibodies for surface staining (CD3, CD4, CD8, CD20, CD56, CD16, CD66b, CD14, BioLegend), including activation markers (CD107a, CD69, CD11b, Biolegend). Antibody master mix was incubated with whole blood for 30 min at 4° C., washed with PBS and analyzed using Cytoflex (Beckman Coulter).

Experiment [3] concerns T cell population (CD3+, CD4+, CD8+ T cells). The experiment is described as follows: Whole blood loop assay: flow cytometry of blood donor T cells (activation markers, viability). In kind it is cell-based, human. Particulars: groups with and without dextran sulfate; 60 min; FIGS. 3A to 3I.
From the text: as §1, with “The automated hematology analyzer XP-300 or XN-350 (Sysmex) was used to assess blood cell count at different time points, while i-STAT cartridges (Abbott) were used to measure ACT kaolin time and prothrombin/INR time measurements.” left out
(§2) The plasma samples were kept on ice, and plasma was collected by centrifugation at 2000×g at 4° C. for 20 minutes. […] Antibody master mix was incubated with whole blood for 30 min at 4° C., washed with PBS and analyzed using Cytoflex (Beckman Coulter).
A general note: Flow cytometry measures light scatter and fluorescence of single cells or particles in a stream.

The test system of experiment [4] is CAR-T cell population. The experiment is described as follows: Whole blood loop assay: flow cytometry of CAR-T cell population (CAR marker, CD69, CD107a, viability). In kind it is cell-based, human. On the procedure:
Peripheral blood mononuclear cells (PBMCs) were isolated from healthy donors using Lymphoprep (Progen), stored in −70° C. in freezing medium (10% dimethyl sulfoxide (DMSO), 90% fetal calf serum (FCS)) and cultured in RPMI-1640 supplemented with 10% FCS and 1% penicillin/streptomycin. The PBMCs were activated with 1 μg/ml OKT-3 (Biolegend) and 200 IU/ml IL-2 (Roche) for 1 day to selectively stimulate T cells. Retronectin plates (Takara) were prepare in advance (7 μg per well, overnight at 4° C.) and incubated twice with 500 μl concentrated CD19-CAR-encoding retrovirus (2G) or Mock retrovirus, previously described in Karlsson et al., Evaluation of Intracellular Signaling Downstream Chimeric Antigen Receptors, PLOS ONE 2015, 10(12):e0144787, for 30 min at 37° C. Activated cells were transduced with 3 ml concentrated CD19-CAR-encoding retrovirus or Mock retorvirus for 2 days at 37° C. in the presence of retronectin-coated plates and 100 IU IL-2. Cells were cultured with 100 IU/ml IL-2 and expanded for 2 weeks before analysis. For analysis of CD19-CAR expression, cells were stained with 0.5 μl of anti-CAR-Dylight649 (Jackson ImmunoResearch), washed with phosphate-buffered saline (PBS) and followed by surface labeling (CD3, CD8, CD4, TF). Flow cytometry analysis was performed using Cytoflex (Beckman Coulter). Cell count and cell viability was determined using trypan blue (T-20 Counter, Bio-Rad).
as §1, with “The automated hematology analyzer XP-300 or XN-350 (Sysmex) was used to assess blood cell count at different time points, while i-STAT cartridges (Abbott) were used to measure ACT kaolin time and prothrombin/INR time measurements.” left out
as §2

The test system of experiment [5] is B cell population (CD19+). As to the kind of experiment: Whole blood loop assay: flow cytometry of B cells (count, CD69, CD107a). It counts as cell-based, human.
From the text: as §1, with “The automated hematology analyzer XP-300 or XN-350 (Sysmex) was used to assess blood cell count at different time points, while i-STAT cartridges (Abbott) were used to measure ACT kaolin time and prothrombin/INR time measurements.” left out
as §2

Experiment [6] deals with monocyte population. As to the kind of experiment: Whole blood loop assay: CD11b on monocytes by flow cytometry. It counts as cell-based, human. Particulars: addition of dextran sulfate to loops; FIG. 9A.
From the text: as §1, with “The automated hematology analyzer XP-300 or XN-350 (Sysmex) was used to assess blood cell count at different time points, while i-STAT cartridges (Abbott) were used to measure ACT kaolin time and prothrombin/INR time measurements.” left out
as §2

Experiment [7] deals with granulocyte population. The experiment is described as follows: Whole blood loop assay: CD11b on granulocytes by flow cytometry. It counts as cell-based, human. Particulars: addition of dextran sulfate to loops; FIG. 9B.
From the text: as §1, with “The automated hematology analyzer XP-300 or XN-350 (Sysmex) was used to assess blood cell count at different time points, while i-STAT cartridges (Abbott) were used to measure ACT kaolin time and prothrombin/INR time measurements.” left out
as §2

Where [8] appears, read: allogenic donor, time point 60 min.
[9] abbreviates: autologous donor, time point 10 min.
[10] abbreviates: autologous donor, time point 60 min.

Take dextran sulfate: the “coagulation measurements (ACT, PTT, INR)” value in experiment [1] (Table 2 and Table 3, autologous and allogenic donor) is reported as “rise in all coagulation measurements”. The Activated clotting time (ACT) came out at 356 s in experiment [1] (setting [8]) and 485 s in experiment [1] (setting [9]). Besides, the Prothrombin time (PT) in experiment [1] (setting [8]) amounted to 30.7 s; in experiment [1] (setting [9]), 16.5 s; in experiment [1] (setting [10]) it was 17.9 s. The “international normalized ration (INR)” value in experiment [1] (setting [8]) is 2.7; in experiment [1] (setting [9]), 1.4; in experiment [1] (setting [10]) it was 1.5. In addition, the C3a levels result is on record as “decreased levels of C3a” in experiment [2] (in co-administration with CAR-T cells) and “decreased levels of C3a” in experiment [2] (substance added alone, both donors). Also, the “viability and activation of T cell population (blood donors CD3+, CD4+, CD8+ T cells)” value in experiment [3] is “similar”. Moreover, the “percentage of cells positive for the CAR-T cell specific marker in the T cell population” value in experiment [4] (allogenic donor, FIG. 4A) is given as “increased”. Besides, the “viability of the CAR-T cells” value in experiment [4] (autologous donor, without or with dextran sulfate, FIG. 5C) is recorded as ~60%. In experiment [4] (when dextran sulfate was added), the “proportion of CD3+ CAR-T cells and CD8+ CAR-T cells, autologous versus allogenic groups” value is listed as “more similar”. Moreover, the “levels of activation markers (CD69, CD107a) in the allogenic CAR-T cell groups” value in experiment [4] (with dextran sulfate, compared with autologous CAR-T cell groups, FIGS. 5A, 5B and 6) is “more similar to the levels of activation markers in the autologous CAR-T cell groups”. The “impact on CAR functionality” value in experiment [5] (from B cell count and activation pattern) was “did not have any negative impact”. Further, in experiment [5] (samples with or without dextran sulfate), the “B cell count and activation pattern” value is reported as “similar”. Also, the “expression of activation marker CD11 b on monocytes” value in experiment [6] was “decreased”. Besides, the “expression of activation marker CD11 b on granulocytes” value in experiment [7] is given as “decreased”.
